Results as given in patent US20140107109A1, “AMINO-DIHYDROTHIAZINE AND AMINO-DIOXIDO DIHYDROTHIAZINE COMPOUNDS AS BETA-SECRETASE ANTAGONISTS AND METHODS OF USE” (Amgen Inc., priority 2012, published 2014).

Key:
Cathepsin D (Cat D) = target: T1, Cathepsin D (Cat D) (Homo sapiens, UniProt P07339); assay: In vitro enzymatic Cathepsin D (Cat D) FRET assay; assay type: biochemical; settings: read-out: CatD IC50
T1 construct: Recombinant Cat D was expressed in CHO cells; made in house; host or cells: CHO cells
How it was run: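 Recombinant Cat D expressed in CHO cells, used at 9 nM and pre-incubated one hour with serially diluted inhibitor in DMSO. Peptide substrate carries a fluorophore and quencher flanking the cleavage site; reaction stopped with Tris buffer raising pH to neutrality, then fluorescence read.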

[1] = target: Beta Secretase enzyme (BACE1) (Homo sapiens, UniProt P56817); assay: In vitro enzymatic BACE FRET assay; assay type: biochemical; settings: average IC50, enzyme assay; read-out: BACE1 FRET assay IC50
How it was run: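 BACE1 cleavage of a 50 nM fluorophore/quencher peptide FRET substrate ran for one hour in 0.05 M acetate pH 4.2, 10% DMSO, 100 uM genapol. Tris buffer raised pH to neutrality to stop the reaction before fluorescence was read (excitation 488 nm, […]).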

[2] = test system: Aβ40 in conditioned medium of cells stably expressing Amyloid Precursor Protein (APP); assay: In vitro BACE cell-based assay (HEK cell assay), Aβ40 sandwich ELISA; settings: Homo sapiens, HEK293
How it was run: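 APP-stably expressing cells (40K/well, grown 24 h in DMEM/10% FBS) were treated 24 h with compounds in 10-point dose response starting at 100 μM or 10 μM, 0.1% DMSO final. Secreted Aβ40 was measured by sandwich ELISA (pAb40 capture, biotinylated 6E10 detection, europium time-resolved fluorescence); IC50 from percent inhibition.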

Chain of Beta Secretase enzyme (BACE1) (P56817 46-501): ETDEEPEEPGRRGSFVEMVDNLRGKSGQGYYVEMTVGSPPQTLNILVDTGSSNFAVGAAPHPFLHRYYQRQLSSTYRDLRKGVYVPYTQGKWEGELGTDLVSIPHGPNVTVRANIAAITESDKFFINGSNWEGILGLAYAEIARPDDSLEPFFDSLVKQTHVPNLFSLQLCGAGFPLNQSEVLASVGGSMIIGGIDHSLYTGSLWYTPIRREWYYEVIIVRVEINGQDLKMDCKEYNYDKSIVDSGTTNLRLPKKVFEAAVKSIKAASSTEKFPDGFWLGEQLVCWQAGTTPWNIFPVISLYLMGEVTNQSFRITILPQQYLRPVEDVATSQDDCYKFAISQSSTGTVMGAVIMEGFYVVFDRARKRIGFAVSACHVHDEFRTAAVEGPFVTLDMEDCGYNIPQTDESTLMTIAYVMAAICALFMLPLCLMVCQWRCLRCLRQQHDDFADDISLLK
T1 sequence (P07339 65-412, species assumed): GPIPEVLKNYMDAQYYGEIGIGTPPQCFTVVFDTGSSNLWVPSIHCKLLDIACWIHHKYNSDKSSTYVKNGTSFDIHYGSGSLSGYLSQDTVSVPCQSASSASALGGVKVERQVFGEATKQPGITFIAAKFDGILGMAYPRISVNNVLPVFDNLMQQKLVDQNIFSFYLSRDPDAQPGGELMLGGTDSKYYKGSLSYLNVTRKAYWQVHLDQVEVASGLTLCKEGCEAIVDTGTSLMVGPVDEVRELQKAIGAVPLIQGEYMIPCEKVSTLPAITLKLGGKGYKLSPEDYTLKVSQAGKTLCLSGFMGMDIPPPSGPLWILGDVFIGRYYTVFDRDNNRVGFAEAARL

Q: Which IC50 (Cathepsin D (Cat D)) does the source give for `CC1(C)C(N)=N[C@](C)(c2cc(Oc3cc(Br)ccn3)ccc2F)CS1(=O)=O` [Example 285, (5R)-5-(5-((4-bromo-2-pyridinyl)oxy)-2-fluorophenyl)-2,2,5-trimethyl-5,6-dihydro-2H-1,4-thiazin-3-amine 1,1-dioxide] here?
A: 374 µM

Q: And the IC50 [1]?
A: 0.0375 µM

Q: What about the IC50 ([2]; average IC50, cell assay) of the same compound?
A: 0.0918 µM

Q: What does the source list for `CC#Cc1ccnc(Oc2ccc(F)c([C@]3(C)CS(=O)(=O)C(C)(C)C(N)=N3)c2)c1` [Example 286, (5R)-5-(2-fluoro-5-((4-(1-propyn-1-yl)-2-pyridinyl)oxy)phenyl)-2,2,5-trimethyl-5,6-dihydro-2H-1,4-thiazin-3-amine 1,1-dioxide]?
A: IC50 (Cathepsin D (Cat D)): 119 µM; IC50 [1]: 0.228 µM; IC50 ([2]; average IC50, cell assay): 0.787 µM

Q: How did the IC50 (Cathepsin D (Cat D)) turn out when `CC1(C)C(N)=N[C@](C)(c2cc(Oc3cc(-c4ccccc4)ccn3)ccc2F)CS1(=O)=O` [Example 289, (5R)-5-(2-fluoro-5-((4-phenyl-2-pyridinyl)oxy)phenyl)-2,2,5-trimethyl-5,6-dihydro-2H-1,4-thiazin-3-amine 1,1-dioxide] was run?
A: 92.7 µM

Q: And the IC50 [1]?
A: 0.0509 µM

Q: What about the IC50 ([2]; average IC50, cell assay) of the same compound?
A: 0.568 µM

Q: How did the IC50 (Cathepsin D (Cat D)) turn out when `CC1(C)C(N)=N[C@](C)(c2cc(Oc3cc(-c4ccncc4)ccn3)ccc2F)CS1(=O)=O` [Example 290, (5R)-5-(5-(4,4′-bipyridin-2-yloxy)-2-fluorophenyl)-2,2,5-trimethyl-5,6-dihydro-2H-1,4-thiazin-3-amine 1,1-dioxide] was run?
A: 826 µM

Q: What about the IC50 [1] of the same compound?
A: 0.328 µM

Q: What about the IC50 ([2]; average IC50, cell assay) of the same compound?
A: 0.318 µM

Q: For `CC1(C)C(N)=N[C@](C)(c2cc(Oc3nccc4ccsc34)ccc2F)CS1(=O)=O` [Example 291, (5R)-5-(2-fluoro-5-(thieno[2,3-c]pyridin-7-yloxy)phenyl)-2,2,5-trimethyl-5,6-dihydro-2H-1,4-thiazin-3-amine 1,1-dioxide], which IC50 (Cathepsin D (Cat D)) is on record?
A: 242 µM

Q: What about the IC50 [1] of the same compound?
A: 0.517 µM

Q: What about the IC50 ([2]; average IC50, cell assay) of the same compound?
A: 0.914 µM

Q: How did the IC50 (Cathepsin D (Cat D)) turn out when `CC1(C)C(N)=N[C@](C)(c2cc(Oc3ncc(C(N)=O)c4sccc34)ccc2F)CS1(=O)=O` [Example 292, 4-(3-((3R)-5-amino-3,6,6-trimethyl-1,1-dioxido-3,6-dihydro-2H-1,4-thiazin-3-yl)-4-fluorophenoxy)thieno[3,2-c]pyridine-7-carboxamide] was run?
A: 219 µM

Q: And the IC50 [1]?
A: 2.01 µM

Q: What about the IC50 ([2]; average IC50, HEK cell assay) of the same compound?
A: 2.23 µM

Q: Which results are given for `CC1(C)C(N)=N[C@](C)(c2cc(Oc3nccc(-c4ccccc4)c3C#N)ccc2F)CS1(=O)=O` [Example 293, 2-(3-((3R)-5-amino-3,6,6-trimethyl-1,1-dioxido-3,6-dihydro-2H-1,4-thiazin-3-yl)-4-fluorophenoxy)-4-phenyl-3-pyridinecarbonitrile]?
A: IC50 (Cathepsin D (Cat D)): 50.9 µM; IC50 [1]: 0.836 µM; IC50 ([2]; average IC50, HEK cell assay): 0.68 µM

Q: For `CC1(C)C(N)=N[C@](C)(c2cc(Oc3nccc4ccccc34)ccc2F)CS1(=O)=O` [Example 294, (5R)-5-(2-fluoro-5-(1-isoquinolinyloxy)phenyl)-2,2,5-trimethyl-5,6-dihydro-2H-1,4-thiazin-3-amine 1,1-dioxide], which IC50 (Cathepsin D (Cat D)) is on record?
A: 202 µM

Q: What about the IC50 [1] of the same compound?
A: 1.05 µM

Q: And the IC50 ([2]; average IC50, HEK cell assay)?
A: 1.14 µM

Q: For `Cc1cc(C)c(C#N)c(Oc2ccc(F)c([C@]3(C)CS(=O)(=O)C(C)(C)C(N)=N3)c2)n1` [Example 295, 2-(3-((3R)-5-amino-3,6,6-trimethyl-1,1-dioxido-3,6-dihydro-2H-1,4-thiazin-3-yl)-4-fluorophenoxy)-4,6-dimethyl-3-pyridinecarbonitrile], which IC50 (Cathepsin D (Cat D)) is on record?
A: 1690 µM

Q: And the IC50 [1]?
A: 2.64 µM

Q: And the IC50 ([2]; average IC50, HEK cell assay)?
A: 2.48 µM

Q: What does the source list for `Cc1ccc(C#N)c(Oc2ccc(F)c([C@]3(C)CS(=O)(=O)C(C)(C)C(N)=N3)c2)n1` [Example 296, 2-(3-((3R)-5-amino-3,6,6-trimethyl-1,1-dioxido-3,6-dihydro-2H-1,4-thiazin-3-yl)-4-fluorophenoxy)-6-methyl-3-pyridinecarbonitrile]?
A: IC50 (Cathepsin D (Cat D)): 232 µM; IC50 [1]: 0.263 µM; IC50 ([2]; average IC50, HEK cell assay): 0.515 µM

Q: `COc1cccnc1Oc1ccc(F)c([C@]2(C)CS(=O)(=O)C(C)(C)C(N)=N2)c1` [Example 297, (5R)-5-(2-fluoro-5-((3-methoxy-2-pyridinyl)oxy)phenyl)-2,2,5-trimethyl-5,6-dihydro-2H-1,4-thiazin-3-amine 1,1-dioxide] was tested. Which IC50 (Cathepsin D (Cat D)) did it give?
A: 975 µM

Q: And the IC50 [1]?
A: 0.202 µM

Q: And the IC50 ([2]; average IC50, HEK cell assay)?
A: 0.219 µM
